Measured values taken from patent US8748426B2, “Inhibitors of diacylglycerol acyl transferase” (Piramal Enterprises Limited, priority 2009, dated 2014).

Biological target: T1, hDGAT1 (Homo sapiens, UniProt O75907)
T1 sequence (O75907 1-488): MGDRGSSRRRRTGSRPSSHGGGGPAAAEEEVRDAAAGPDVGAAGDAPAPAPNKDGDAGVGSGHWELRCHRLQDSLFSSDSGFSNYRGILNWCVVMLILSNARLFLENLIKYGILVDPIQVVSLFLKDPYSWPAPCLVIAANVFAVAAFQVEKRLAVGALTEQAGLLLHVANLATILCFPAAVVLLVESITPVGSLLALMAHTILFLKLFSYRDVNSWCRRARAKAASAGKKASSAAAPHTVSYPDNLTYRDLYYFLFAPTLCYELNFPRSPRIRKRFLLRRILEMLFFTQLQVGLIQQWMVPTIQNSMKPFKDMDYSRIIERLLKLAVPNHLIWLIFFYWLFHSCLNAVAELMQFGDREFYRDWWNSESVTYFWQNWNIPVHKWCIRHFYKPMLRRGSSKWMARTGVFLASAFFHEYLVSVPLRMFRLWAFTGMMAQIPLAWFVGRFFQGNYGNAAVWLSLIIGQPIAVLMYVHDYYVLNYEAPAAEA
Assay: In-vitro DGAT1 assay (14C oleoyl CoA, hDGAT1 microsomes from Sf9 cells)
Conditions: for % Inhibition of hDGAT1: at 1 μM; for inhibition at 1 µM: read-out: % Inhibition of hDGAT1

SMILES | % Inhibition of hDGAT1 | inhibition at 1 µM [%]
CC(C)[C@@H](C(=O)O)N1Cc2ccc(-c3ccc(NC(=O)c4ccc(-c5ccccc5)cc4)cc3Cl)cc2C1=O [Example 482, (S)-2-(6-(4-Biphenyl-4-ylcarboxamido-2-chlorophenyl)-1-oxoisoindolin-2-yl)-3-methylbutanoic acid] | ++ (>50% Inhibition) | 
CC(C)[C@@H](C(=O)O)N1Cc2ccc(-c3ccc(NC(=O)c4cccc5ccccc45)cc3)cc2C1=O [Example 178, (S)-2-(6-(4-(1-Naphthamido)phenyl)-1-oxoisoindolin-2-yl)-3-methylbutanoic acid] |  | 10 to 50
CC(C)[C@@H](C(=O)O)N1Cc2ccc(-c3ccc(NC(=O)Nc4c(F)cccc4F)cc3)cc2C1=O [Example 20, (S)-2-(6-(4-(3-(2,6-Difluorophenyl)ureido)phenyl)-1-oxoisoindolin-2-yl)-3-methylbutanoic acid] |  | 10 to 50
COc1cc(NC(=O)c2ccc(-c3ccccc3)cc2)ccc1-c1ccc2c(c1)C(=O)N([C@H](C(=O)O)C(C)C)C2 [Example 458, (S)-2-(6-(4-Biphenyl-4-ylcarboxamido-2-methoxyphenyl)-1-oxoisoindolin-2-yl)-3-methylbutanoic acid] | ++ (>50% Inhibition) | 
O=C(Nc1ccc(-c2ccc3c(c2)C(=O)N(C2(C(=O)O)CCCC2)C3)cc1)c1ccc(Cl)cc1 [Example 533, 1-(6-(4-(4-Chlorobenzamido)phenyl)-1-oxoisoindolin-2-yl)cyclopentane carboxylic acid] |  | > 50
Cc1ccc(NC(=O)Nc2ccc(-c3ccc4c(c3)C(=O)N([C@H](C(=O)O)C(C)C)C4)c(C(F)(F)F)c2)cc1C [Example 422, (S)-2-(6-(4-(3-(3,4-Dimethylphenyl)ureido)-2-(trifluoromethyl)phenyl)-1-oxoisoindolin-2-yl)-3-methylbutanoic acid] |  | 10 to 50
O=C(Nc1ccc(-c2ccc3c(c2)C(=O)N(C2(C(=O)O)CCCC2)C3)cc1)c1ccc(OC(F)(F)F)cc1 [Example 535, 1-(1-Oxo-6-(4-(4-(trifluoromethoxy)benzamido)phenyl)isoindolin-2-yl)cyclopentane carboxylic acid] |  | > 50
CC(C)[C@@H](C(=O)O)N1Cc2ccc(-c3ccc(NC(=O)Nc4ccc(F)c(F)c4)cc3C(F)(F)F)cc2C1=O [Example 418, (S)-2-(6-(4-(3-(3,4-Difluorophenyl)ureido)-2-(trifluoromethyl)phenyl)-1-oxoisoindolin-2-yl)-3-methylbutanoic acid] |  | 10 to 50
CC(C)[C@@H](C(=O)O)N1Cc2ccc(-c3ccc(NC(=O)c4ccc(F)cc4F)cc3)cc2C1=O [Example 110, (S)-2-(6-(4-(2,4-Difluorobenzamido)phenyl)-1-oxoisoindolin-2-yl)-3-methyl butanoic acid] |  | > 50
CC(C)[C@@H](C(=O)O)N1Cc2ccc(-c3ccc(NS(=O)(=O)c4ccc(F)c(F)c4)cc3)cc2C1=O [Example 82, (S)-2-(6-(4-(3,4-Difluorophenylsulfonamido)phenyl)-1-oxoisoindolin-2-yl)-3-methylbutanoic acid] |  | 10 to 50
CCCCOc1ccc(C(=O)Nc2ccc(-c3ccc4c(c3)C(=O)N([C@H](C(=O)O)C(C)C)C4)cc2)cc1 [Example 136, (S)-2-(6-(4-(4-Butoxybenzamido)phenyl)-1-oxoisoindolin-2-yl)-3-methyl butanoic acid] |  | > 50
CCc1ccc(C(=O)Nc2ccc(-c3ccc4c(c3)C(=O)N([C@H](C(=O)O)C(C)C)C4)cc2)cc1 [Example 168, (S)-2-(6-(4-(4-Ethylbenzamido)phenyl)-1-oxoisoindolin-2-yl)-3-methylbutanoic acid] |  | > 50
Cc1oc(-c2ccccc2)nc1C(=O)Nc1ccc(-c2ccc3c(c2)C(=O)N([C@H](C(=O)O)C(C)C)C3)nc1 [Example 655, (S)-3-Methyl-2-(6-(5-(5-methyl-2-phenyloxazole-4-carboxamido)pyridin-2-yl)-1-oxoisoindolin-2-yl)butanoic acid] |  | > 50
COc1ccccc1NC(=S)Nc1ccc(-c2ccc3c(c2)CN([C@H](C(=O)O)C(C)C)C3=O)cc1 [Example 281, (S)-2-(5-(4-(3-(2-Methoxyphenyl)thioureido)phenyl)-1-oxoisoindolin-2-yl)-3-methylbutanoic acid] |  | > 50
CC(C)[C@@H](C(=O)O)N1Cc2ccc(-c3ccc(NC(=O)Nc4ccc5c(c4)CCC5)c(F)c3)cc2C1=O [Example 438, (S)-2-(6-(4-(3-(2,3-Dihydro-1H-inden-5-yl)ureido)-3-fluorophenyl)-1-oxoisoindolin-2-yl)-3-methylbutanoic acid] |  | > 50
O=C(Nc1ccc(-c2ccc3c(c2)C(=O)N(C2(C(=O)O)CC2)C3)cc1)c1ccc(C(F)(F)F)cc1 [Example 590, 1-(1-Oxo-6-(4-(4-(trifluoromethyl)benzamido)phenyl)isoindolin-2-yl)cyclo propane carboxylic acid] |  | > 50
CCCCOc1ccc(C(=O)Nc2cnc(-c3ccc4c(c3)C(=O)N([C@H](C(=O)O)C(C)C)C4)cn2)cc1 [Example 509, (S)-2-(6-(5-(4-Butoxybenzamido)pyrazin-2-yl)-1-oxoisoindolin-2-yl)-3-methylbutanoic acid] |  | > 50
CC(C)[C@@H](C(=O)O)N1Cc2ccc(-c3ccc(NC(=O)c4ccc(F)cc4C(F)(F)F)cc3)cc2C1=O [Example 198, (S)-2-(6-(4-(4-Fluoro-2-(trifluoromethyl)benzamido)phenyl)-1-oxoisoindolin-2-yl)-3-methylbutanoic acid] |  | 10 to 50
CC(C)[C@@H](C(=O)O)N1Cc2ccc(-c3ccc(NC(=O)Nc4ccccc4Oc4ccccc4)cc3)cc2C1=O [Example 48, (S)-3-Methyl-2-(1-oxo-6-(4-(3-(2-phenoxyphenyl)ureido)phenyl)isoindolin-2-yl)butanoic acid] |  | > 50
CC(C)[C@@H](C(=O)O)N1Cc2ccc(-c3ccc(NC(=O)Nc4ccc5c(c4)CCC5)cn3)cc2C1=O [Example 402, (S)-2-(6-(5-(3-(2,3-Dihydro-1H-inden-5-yl)ureido)pyridin-2-yl)-1-oxoisoindolin-2-yl)-3-methylbutanoic acid] |  | > 50
CC(C)[C@@H](C(=O)O)N1Cc2ccc(-c3ccc(NC(=O)Nc4cccc(C#N)c4)cc3)cc2C1=O [Example 42, (S)-2-(6-(4-(3-(3-Cyanophenyl)ureido)phenyl)-1-oxoisoindolin-2-yl)-3-methyl butanoic acid] |  | > 50
CC(C)[C@@H](C(=O)O)N1Cc2ccc(-c3ccc(NS(=O)(=O)c4ccc(F)cc4F)cc3)cc2C1=O [Example 84, (S)-2-(6-(4-(2,4-Difluorophenylsulfonamido)phenyl)-1-oxoisoindolin-2-yl)-3-methylbutanoic acid] |  | 10 to 50
CC(C)[C@@H](C(=O)O)N1Cc2ccc(-c3ccc(NC(=O)Nc4cc(Cl)ccc4Oc4ccccc4)cc3)cc2C1=O [Example 46, (S)-2-(6-(4-(3-(5-Chloro-2-phenoxyphenyl)ureido)phenyl)-1-oxoisoindolin-2-yl)-3-methylbutanoic acid] |  | > 50
CC(C)[C@@H](C(=O)O)N1Cc2ccc(-c3ccc(NC(=O)c4ccc(C(C)(C)C)cc4)c(F)c3)cc2C1=O [Example 444, (S)-2-(6-(4-(4-tert-Butylbenzamido)-3-fluorophenyl)-1-oxoisoindolin-2-yl)-3-methylbutanoic acid] |  | > 50
